Results: ChEMBL document CHEMBL3774323, “Stimulation of cortical bone formation with thienopyrimidine based inhibitors of Notum Pectinacetylesterase” (Bioorg Med Chem Lett, 2016)
pEC50, pIC50: −log10 of the molar value.

Key:
[1] = target: T1, Palmitoleoyl-protein carboxylesterase NOTUM (Homo sapiens, UniProt Q6P988); assay: Inhibition of human notum pectinacetylesterase expressed in 293F cells after 30 mins by TCF/LEF cell sensor assay; type: cell-based
T1 sequence (Q6P988 whole entry): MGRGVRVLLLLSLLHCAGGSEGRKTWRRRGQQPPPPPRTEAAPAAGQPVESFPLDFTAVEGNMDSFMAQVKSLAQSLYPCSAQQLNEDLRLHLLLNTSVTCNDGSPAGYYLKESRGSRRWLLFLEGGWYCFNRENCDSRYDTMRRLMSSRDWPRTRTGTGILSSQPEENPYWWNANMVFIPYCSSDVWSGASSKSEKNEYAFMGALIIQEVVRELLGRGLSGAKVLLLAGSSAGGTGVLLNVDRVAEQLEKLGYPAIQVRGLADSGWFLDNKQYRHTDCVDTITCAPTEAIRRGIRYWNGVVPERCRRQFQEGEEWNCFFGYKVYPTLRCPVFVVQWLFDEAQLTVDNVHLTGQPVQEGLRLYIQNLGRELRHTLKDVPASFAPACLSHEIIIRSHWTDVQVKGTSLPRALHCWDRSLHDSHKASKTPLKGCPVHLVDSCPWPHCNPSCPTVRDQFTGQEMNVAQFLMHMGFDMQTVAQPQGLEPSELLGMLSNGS

[2] = target: T2, Palmitoleoyl-protein carboxylesterase NOTUM (Mus musculus, UniProt Q8R116); assay: Inhibition of mouse notum pectinacetylesterase expressed in 293F cells after 30 mins by TCF/LEF cell sensor assay; type: cell-based
T2 sequence (Q8R116 whole entry): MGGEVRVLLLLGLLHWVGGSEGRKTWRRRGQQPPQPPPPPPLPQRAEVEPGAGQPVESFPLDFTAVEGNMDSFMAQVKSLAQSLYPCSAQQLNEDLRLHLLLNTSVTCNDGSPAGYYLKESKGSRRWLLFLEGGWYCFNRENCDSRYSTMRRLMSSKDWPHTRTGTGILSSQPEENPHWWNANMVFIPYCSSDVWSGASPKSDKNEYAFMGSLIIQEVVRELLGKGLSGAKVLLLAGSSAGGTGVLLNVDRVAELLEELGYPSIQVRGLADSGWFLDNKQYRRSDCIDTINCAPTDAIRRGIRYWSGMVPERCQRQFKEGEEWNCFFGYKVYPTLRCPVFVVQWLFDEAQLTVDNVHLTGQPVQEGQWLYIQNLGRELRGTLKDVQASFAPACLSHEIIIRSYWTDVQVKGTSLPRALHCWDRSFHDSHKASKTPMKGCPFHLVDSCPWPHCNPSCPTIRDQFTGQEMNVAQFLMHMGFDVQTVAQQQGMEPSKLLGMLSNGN

[3] = Inhibition of human/mouse notum pectinacetylesterase using OPTS as substrate by fluorimetric assay
[4] = Oral bioavailability in mouse at 10 mg/kg; type: ADME, organism-based; settings: in vivo
[5] = Clearance in mouse at 10 mg/kg, po; type: ADME, organism-based; settings: in vivo
[6] = AUC in mouse at 10 mg/kg, po; type: ADME, organism-based; settings: in vivo
[7] = Cmax in mouse at 10 mg/kg, po; type: ADME, organism-based; set-up: dose 10 mg/kg, route oral; settings: in vivo
[8] = test system: Mus musculus; assay: Volume of distribution at steady state in mouse at 10 mg/kg, po; type: ADME, organism-based; settings: in vivo

Row | pEC50 [1] | pEC50 [2] | pIC50 [3] | SMILES | also measured
1 | 6.36 | 5.84 | – | Cc1c(Cl)sc2c(SCC(=O)O)ncnc12 | –
2 | 7.06 | 6.47 | – | CCCc1sc2ncnc(SCC(=O)O)c2c1Cl | –
3 | – | – | 5.55 | O=C(O)CSc1ncnc2sccc12 | –
4 | 6.35 | – | 8.70 | COC(=O)CSc1ncnc2sc(C)c(C)c12 | –
5 | 6.94 | 6.39 | – | Cc1sc2c(SCC(=O)O)ncnc2c1C1CC1 | –
6 | – | – | 6.82 | Cc1cc2c(SCC(=O)O)ncnc2s1 | –
7 | 6.41 | 5.84 | – | CCc1sc2ncnc(SCC(=O)O)c2c1Cl | –
8 | – | – | 5.92 | O=C(O)CSc1ncnc2ccccc12 | –
9 | 6.68 | – | 8.22 | Cc1sc2ncnc(SCC(=O)c3ccc(CNC(=O)C(C)C)o3)c2c1C | –
10 | 6.08 | 5.58 | – | CCc1sc2ncnc(SCC(=O)O)c2c1C | –
11 | 6.55 | – | 8.00 | Cc1sc2ncnc(SCC(=O)c3c[nH]c(C(=O)N4CCCC4)c3)c2c1C | –
12 | – | – | 6.21 | O=C(O)CSc1ncnc2sc3c(c12)CCCC3 | –
13 | – | – | 4.82 | O=C(O)CSc1ncnc2scnc12 | –
14 | 6.97 | 6.39 | – | Cc1sc2ncnc(SCC(=O)O)c2c1Cl | bioavailability [4]: 95%; CL/F [5]: 1.22 mL/min/kg; AUC [6]: 515 µM·h; Cmax [7]: 157 µM; Vdss [8]: 0.16 L/kg
15 | 6.60 | 6.00 | – | O=C(O)CSc1ncnc2sc(C3CC3)c(Cl)c12 | –
16 | 6.40 | – | 8.70 | Cc1sc2ncnc(SCC(=O)NC#N)c2c1C | –
17 | 6.68 | 6.43 | – | Cc1sc2ncnc(SCC(=O)O)c2c1Br | –
18 | – | – | 4.82 | O=C(O)CSc1ncnc2[nH]ccc12 | –
19 | 4.66 | 4.18 | – | CCc1c(C)sc2ncnc(SCC(=O)O)c12 | –

Row | pEC50 [1] | pEC50 [2] | pIC50 [3] | SMILES | also measured
20 | 6.05 | 5.59 | – | Cc1c(Cl)sc2ncnc(SCC(=O)O)c12 | –
21 | 5.71 | 5.26 | – | Cc1sc2c(SCC(=O)O)ncnc2c1Cl | –
22 | – | – | 4.82 | O=C(O)CSc1ncnc2[nH]ncc12 | –
23 | 6.38 | 5.87 | – | Cc1c(Br)sc2c(SCC(=O)O)ncnc12 | –
24 | – | 5.99 | 8.70 | Cc1sc2ncnc(SCC(=O)O)c2c1C | –
25 | 6.77 | – | 8.70 | Cc1sc2ncnc(SCC(=O)c3c[nH]c(CNS(=O)(=O)C4CC4)c3)c2c1C | –
26 | 6.32 | 6.08 | – | CC(C)c1sc2ncnc(SCC(=O)O)c2c1Cl | –
27 | 6.84 | 6.31 | – | Cc1c(Br)sc2ncnc(SCC(=O)O)c12 | –
28 | 6.07 | – | 8.70 | Cc1sc2ncnc(SCC(N)=O)c2c1C | –
29 | – | – | 7.04 | Cc1csc2ncnc(SCC(=O)O)c12 | –
30 | 6.10 | – | 7.57 | CNC(=O)CSc1ncnc2sc(C)c(C)c12 | –
31 | – | – | 6.71 | Cc1csc2c(SCC(=O)O)ncnc12 | –
32 | 6.60 | – | 8.30 | Cc1sc2ncnc(SCC(=O)c3ccc(CNC(=O)C4CC4)o3)c2c1C | –
33 | 7.92 | 7.37 | – | O=C(O)CSc1ncnc2c(C3CC3)c(C(F)(F)F)sc12 | –
34 | – | 7.26 | – | O=C(O)CSc1ncnc2c(C3CC3)c(Cl)sc12 | Vdss [8]: 0.13 L/kg
35 | 5.84 | – | 7.96 | Cc1sc2ncnc(SCC(=O)NS(C)(=O)=O)c2c1C | –
36 | 6.06 | 5.35 | – | Cc1sc2c(SCC(=O)O)ncnc2c1C | –
37 | 6.25 | – | 8.70 | Cc1sc2ncnc(SCC(=O)NO)c2c1C | –
